Data: publication PMC10695737, “Crystal Modifications of a Cyclic Guanosine Phosphorothioate Analogue, a Drug Candidate for Retinal Neurodegenerations” (ChemistryOpen, 2023)
In brackets after ≈: the same amount, converted by molar mass.

Assays:
Assay type in all cases: physicochemical
[1] = pH-dependent solubility in basic buffer NaOH(aq); details: 0.1 M NaOH(aq) basic buffer, aqueous buffer, thermodynamic from solid, pH 13, read-out: Solubility in 0.1M NaOH(aq), mg / mL (SD)
Protocol: (§1) The pH‐solubility profile of cGMPSA salts and free acid was determined by phase solubility techniques.[18] Briefly, saturated mixtures of the compound were prepared by adding excess amount to 4 mL vials containing 2 mL deionized water, an acidic buffer (0.1 M HCl(aq), pH 1), or a basic buffer (0.1 M NaOH(aq), pH 13). They were allowed to equilibrate for 24 h using mild agitation before recording the pH. The clear solution was separated from the solids by filtration with a Cytiva Whatman™ Mini‐Uniprep™ polypropylene 0.45 μm filter device and diluted to an appropriate analytical concentration where needed. The sample was then analyzed by HPLC, and the solubility determined by integrating the area of the peak of interest against a standard curve. The solids were also analyzed by XRPD to record the crystal modification obtained.

[2] = Phase solubility in deionized water (HPLC); details: for solubility at 24 h: deionized water, thermodynamic from solid
Protocol: as §1

[3] = Dynamic vapor sorption (DVS), water sorption as Δm; details: for Water sorption Δm: 25 °C
Protocol: The samples were analyzed at 25 °C with a Surface Measurements Systems DVS Advantage. A sample was weighted into a weighing pan and its mass was monitored while it was exposed to different relative humidities (%RH=%P/P0). Before the analysis, the weighing pan was subject to an antistatic program.
The analysis program consisted of two cycles. In each cycle, the relative humidity was increased stepwise up to 95 % RH (starting from 0 % RH, 9 steps with 10 % and one step with 5 %) and then decreased stepwise to 0 % RH again. In both sorption/desorption cycles, at each step, the sample was kept at the set relative humidity until dm/dt <0.002 %, over 15 min.

[4] = pH-dependent solubility in acidic buffer 0.1 M HCl(aq); details: 0.1 M HCl(aq) acidic buffer, simulated gastric fluid, thermodynamic from solid, pH 1, read-out: Solubility in 0.1M HCl(aq), µg / mL (SD)
Protocol: as §1

[5] = Polymorph screen, approximate solubility in solvents (UHPLC); details: thermodynamic from solid
Protocol: A polymorph screen was done for cGMPSA‐TEA with a similar approach. An excess of the compound was slurried in a range of solvents, typically 20–40 mg in 1 mL. For screens where enough solid material was obtained, it was analyzed by XRPD to record the crystal modification.

Which solubility at 24 h [1] does the source give for `O=c1c2nc(Br)n(C3OC4COP(O)(=S)OC4C3O)c2nc2[nH]c(-c3ccccc3)cn12` (centres unmarked) [cGMPSA‐TEA] here?
The solubility at 24 h was 51600 µg/mL (≈ 95500 µM).

And the pH of mixture ([2]; aqueous solubility measurements, supplement)?
The pH of mixture was 4,38.

And the “pH at saturation solubility” value ([2]; deionized H2O, quadruplicates)?
Its value is 4.4 (±0.4).

And the solubility at 24 h ([2]; pH 4.38, water, supplement, read-out: Aqueous solubility measurements)?
Its solubility at 24 h is 8900 µg/mL (≈ 16500 µM).

And the solubility at 24 h ([2]; pH 4.4, water, deionized H2O, quadruplicates, read-out: Solubility)?
Its solubility at 24 h is 8800 µg/mL (≈ 16300 µM).

And the “Water sorption Δm” value ([3]; 0 % RH, after final desorption cycle 2 (D2))?
The value was −1.0%.

And the “Water sorption Δm” value ([3]; 30 % RH, desorption cycle 2 (D2))?
Its value is 3.5%.

And the “Water sorption Δm” value ([3]; 30 % RH, sorption cycle 1 (S1))?
Its value is 3.4%.

What about the “Water sorption Δm” value ([3]; 60 % RH, desorption cycle 2 (D2)) of the same compound?
The value was 4.8%.

What about the “Water sorption Δm” value ([3]; 60 % RH, sorption cycle 1 (S1)) of the same compound?
Its value is 4.0%.

What about the “Water sorption Δm” value ([3]; 95 % RH, desorption cycle 2 (D2)) of the same compound?
Its value is 5.2%.

And the “Water sorption Δm” value ([3]; 95 % RH, sorption cycle 1 (S1))?
The value was 5.0%.

What about the “change in mass (Δm)” value ([3]; at 95 % relative humidity (maximum RH), stated in text) of the same compound?
The value was “about 5%”.

And the solubility at 24 h [4]?
The solubility at 24 h was 5 µg/mL (≈ 9.25 µM).

What about the solubility ([5]; aqueous with cosolvent or surfactant or cyclodextrin, solvent EtOH+H2O 1 : 1 v/v, solution) of the same compound?
The solubility was > 40000 µg/mL.

And the solubility ([5]; aqueous with cosolvent or surfactant or cyclodextrin, solvent MeCN+H2O 1 : 1 v/v, solution)?
Its solubility is > 40000 µg/mL.

What about the solubility ([5]; aqueous with cosolvent or surfactant or cyclodextrin, solvent MeOH+H2O 1 : 1 v/v, solution) of the same compound?
The solubility was > 40000 µg/mL.

What about the solubility ([5]; aqueous with cosolvent or surfactant or cyclodextrin, solvent THF+H2O 1 : 1 v/v, solution) of the same compound?
Its solubility is > 40000 µg/mL.

And the solubility ([5]; organic solvent or mixture, solvent 2‐PrOH)?
Its solubility is 105 µg/mL (≈ 194 µM).

What about the solubility ([5]; organic solvent or mixture, solvent Acetone) of the same compound?
Its solubility is 285 µg/mL (≈ 527 µM).

What about the solubility ([5]; organic solvent or mixture, solvent DMF, solution) of the same compound?
The solubility was > 40000 µg/mL.

What about the solubility ([5]; organic solvent or mixture, solvent DMSO, solution) of the same compound?
Its solubility is > 40000 µg/mL.

What about the solubility ([5]; organic solvent or mixture, solvent Dichloromethane) of the same compound?
Its solubility is 30 µg/mL (≈ 55.5 µM).

And the solubility ([5]; organic solvent or mixture, solvent Diethyl ether)?
Its solubility is 3 µg/mL (≈ 5.55 µM).

And the solubility ([5]; organic solvent or mixture, solvent Dimethoxyethane)?
Its solubility is 15 µg/mL (≈ 27.8 µM).

And the solubility ([5]; organic solvent or mixture, solvent Dioxane)?
The solubility was 30 µg/mL (≈ 55.5 µM).

What about the solubility ([5]; organic solvent or mixture, solvent EtOAc) of the same compound?
The solubility was 5 µg/mL (≈ 9.25 µM).

What about the solubility ([5]; organic solvent or mixture, solvent EtOH) of the same compound?
The solubility was 1610 µg/mL (≈ 2980 µM).

What about the solubility ([5]; organic solvent or mixture, solvent EtOH+THF 1 : 1 v/v, solution) of the same compound?
Its solubility is > 40000 µg/mL.

And the solubility ([5]; organic solvent or mixture, solvent MeCN)?
Its solubility is 114 µg/mL (≈ 211 µM).

What about the solubility ([5]; organic solvent or mixture, solvent MeOH) of the same compound?
Its solubility is 40 µg/mL (≈ 74 µM).

What about the solubility ([5]; organic solvent or mixture, solvent MeTHF) of the same compound?
The solubility was 10 µg/mL (≈ 18.5 µM).

And the solubility ([5]; organic solvent or mixture, solvent THF)?
The solubility was 28 µg/mL (≈ 51.8 µM).

And the solubility ([5]; organic solvent or mixture, solvent i‐PrOAc)?
Its solubility is 10 µg/mL (≈ 18.5 µM).

And the solubility ([5]; organic solvent or mixture, solvent n‐BuOH)?
Its solubility is 210 µg/mL (≈ 389 µM).
